Measurements from PubChem BioAssay (NCI).
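In this assay, cells in 96-well plates receive the compound at five concentrations for 48 hours. Endpoints are linearly interpolated between the surrounding concentrations. GI50: concentration for 50% inhibition of growth. The concentration for full growth arrest is given as TGI.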

Experiments:
Assay in all cases: growth of human tumour cells (NCI), 48 h
786-0 renal = tested on: 786-0 renal
A498 renal = tested on: A498 renal
A549 NSCLC = tested on: A549 NSCLC
ACHN renal = tested on: ACHN renal
BT-549 breast = tested on: BT-549 breast
CAKI-1 renal = tested on: CAKI-1 renal
CCRF-CEM leukemia = tested on: CCRF-CEM leukemia
COLO 205 colon = tested on: COLO 205 colon
DU-145 prostate = tested on: DU-145 prostate
EKVX NSCLC = tested on: EKVX NSCLC
HCC-2998 colon = tested on: HCC-2998 colon
HCT-116 colon = tested on: HCT-116 colon
HCT-15 colon = tested on: HCT-15 colon
HL-60(TB) leukemia = tested on: HL-60(TB) leukemia
HOP-62 NSCLC = tested on: HOP-62 NSCLC
HOP-92 NSCLC = tested on: HOP-92 NSCLC
HS 578T breast = tested on: HS 578T breast
HT29 colon = tested on: HT29 colon
IGROV1 ovarian = tested on: IGROV1 ovarian
K-562 leukemia = tested on: K-562 leukemia
KM12 colon = tested on: KM12 colon
LOX IMVI melanoma = tested on: LOX IMVI melanoma
M14 melanoma = tested on: M14 melanoma
MALME-3M melanoma = tested on: MALME-3M melanoma
MCF7 breast = tested on: MCF7 breast
MDA-MB-231 breast = tested on: MDA-MB-231 breast
MDA-MB-435 = tested on: MDA-MB-435
MOLT-4 leukemia = tested on: MOLT-4 leukemia
NCI-H226 lung = tested on: NCI-H226 lung
NCI-H23 lung = tested on: NCI-H23 lung
NCI-H460 lung = tested on: NCI-H460 lung
NCI-H522 lung = tested on: NCI-H522 lung
NCI/ADR-RES ovarian = tested on: NCI/ADR-RES ovarian
OVCAR-3 ovarian = tested on: OVCAR-3 ovarian
OVCAR-4 ovarian = tested on: OVCAR-4 ovarian
OVCAR-5 ovarian = tested on: OVCAR-5 ovarian
OVCAR-8 ovarian = tested on: OVCAR-8 ovarian
PC-3 prostate = tested on: PC-3 prostate
RPMI-8226 leukemia = tested on: RPMI-8226 leukemia
RXF 393 renal = tested on: RXF 393 renal
SF-268 CNS = tested on: SF-268 CNS
SF-295 CNS = tested on: SF-295 CNS
SF-539 CNS = tested on: SF-539 CNS
SK-MEL-2 melanoma = tested on: SK-MEL-2 melanoma
SK-MEL-28 melanoma = tested on: SK-MEL-28 melanoma
SK-MEL-5 melanoma = tested on: SK-MEL-5 melanoma
SK-OV-3 ovarian = tested on: SK-OV-3 ovarian
SN12C renal = tested on: SN12C renal
SNB-19 CNS = tested on: SNB-19 CNS
SNB-75 CNS = tested on: SNB-75 CNS
SR leukemia = tested on: SR leukemia
SW-620 colon = tested on: SW-620 colon
T-47D breast = tested on: T-47D breast
TK-10 renal = tested on: TK-10 renal
U251 CNS = tested on: U251 CNS
UACC-257 melanoma = tested on: UACC-257 melanoma
UACC-62 melanoma = tested on: UACC-62 melanoma
UO-31 renal = tested on: UO-31 renal

C=C[C@H]1CCC/C=C/[C@@H]2C[C@H](O)C[C@H]2[C@H](O)/C=C/C(=O)O1
GI50 (786-0 renal): 18.4 nM
TGI (786-0 renal): 37.7 nM
GI50 (A498 renal): 15 nM
TGI (A498 renal): 52.8 nM
GI50 (A549 NSCLC): 41.5 nM
TGI (A549 NSCLC): > 100000 nM
GI50 (ACHN renal): 40.4 nM
TGI (ACHN renal): > 100000 nM
GI50 (BT-549 breast): 50 nM
TGI (BT-549 breast): > 100000 nM
GI50 (CAKI-1 renal): 35 nM
TGI (CAKI-1 renal): > 100000 nM
GI50 (CCRF-CEM leukemia): 41.8 nM
TGI (CCRF-CEM leukemia): > 100000 nM
GI50 (COLO 205 colon): 19.4 nM
TGI (COLO 205 colon): 36.5 nM
GI50 (DU-145 prostate): 77.1 nM
TGI (DU-145 prostate): > 100000 nM
GI50 (EKVX NSCLC): 39.5 nM
TGI (EKVX NSCLC): > 100000 nM
GI50 (HCC-2998 colon): 31.6 nM
GI50 (HCT-116 colon): 23.8 nM
TGI (HCT-116 colon): 57.6 nM
GI50 (HCT-15 colon): 32.5 nM
TGI (HCT-15 colon): > 34700 nM
GI50 (HL-60(TB) leukemia): 34.7 nM
TGI (HL-60(TB) leukemia): 234 nM
GI50 (HOP-62 NSCLC): 48.8 nM
GI50 (HOP-92 NSCLC): 28.9 nM
TGI (HOP-92 NSCLC): 2990 nM
GI50 (HS 578T breast): < 10 nM
TGI (HS 578T breast): > 100000 nM
GI50 (HT29 colon): 24.4 nM
TGI (HT29 colon): 63.2 nM
GI50 (IGROV1 ovarian): 65.5 nM
TGI (IGROV1 ovarian): > 100000 nM
GI50 (K-562 leukemia): 47.8 nM
TGI (K-562 leukemia): > 100000 nM
GI50 (KM12 colon): 22 nM
TGI (KM12 colon): 50.7 nM
GI50 (LOX IMVI melanoma): 22.2 nM
TGI (LOX IMVI melanoma): 52.8 nM
GI50 (M14 melanoma): 35.3 nM
TGI (M14 melanoma): > 100000 nM
GI50 (MALME-3M melanoma): 34 nM
TGI (MALME-3M melanoma): 1890 nM
GI50 (MCF7 breast): 21 nM
TGI (MCF7 breast): 53.2 nM
GI50 (MDA-MB-231 breast): 20.1 nM
TGI (MDA-MB-231 breast): 40.3 nM
GI50 (MDA-MB-435): 43 nM
TGI (MDA-MB-435): > 100000 nM
GI50 (MOLT-4 leukemia): 38.7 nM
TGI (MOLT-4 leukemia): > 100000 nM
GI50 (NCI-H226 lung): < 12.5 nM
TGI (NCI-H226 lung): 28.9 nM
GI50 (NCI-H23 lung): 39.3 nM
TGI (NCI-H23 lung): 6000 nM
GI50 (NCI-H460 lung): 42.2 nM
TGI (NCI-H460 lung): > 100000 nM
GI50 (NCI-H522 lung): 67.3 nM
TGI (NCI-H522 lung): 356 nM
GI50 (NCI/ADR-RES ovarian): 36.1 nM
TGI (NCI/ADR-RES ovarian): > 100000 nM
GI50 (OVCAR-3 ovarian): 24.2 nM
TGI (OVCAR-3 ovarian): 57.6 nM
GI50 (OVCAR-4 ovarian): 30.3 nM
TGI (OVCAR-4 ovarian): > 100000 nM
GI50 (OVCAR-5 ovarian): 50.4 nM
TGI (OVCAR-5 ovarian): > 100000 nM
GI50 (OVCAR-8 ovarian): 37.4 nM
TGI (OVCAR-8 ovarian): > 100000 nM
GI50 (PC-3 prostate): 45.8 nM
TGI (PC-3 prostate): > 100000 nM
GI50 (RPMI-8226 leukemia): 45 nM
TGI (RPMI-8226 leukemia): > 100000 nM
GI50 (RXF 393 renal): < 13.7 nM
TGI (RXF 393 renal): < 19.3 nM
GI50 (SF-268 CNS): 38 nM
TGI (SF-268 CNS): > 100000 nM
GI50 (SF-295 CNS): 53.7 nM
TGI (SF-295 CNS): > 100000 nM
GI50 (SF-539 CNS): 53.1 nM
TGI (SF-539 CNS): > 100000 nM
GI50 (SK-MEL-2 melanoma): 30.3 nM
TGI (SK-MEL-2 melanoma): 94.4 nM
GI50 (SK-MEL-28 melanoma): 21.3 nM
TGI (SK-MEL-28 melanoma): 404 nM
GI50 (SK-MEL-5 melanoma): < 12.9 nM
TGI (SK-MEL-5 melanoma): 23.8 nM
GI50 (SK-OV-3 ovarian): 40.6 nM
TGI (SK-OV-3 ovarian): > 93500 nM
GI50 (SN12C renal): 37.4 nM
TGI (SN12C renal): > 100000 nM
GI50 (SNB-19 CNS): 54.2 nM
TGI (SNB-19 CNS): > 100000 nM
GI50 (SNB-75 CNS): < 10 nM
TGI (SNB-75 CNS): > 100000 nM
GI50 (SR leukemia): 31.9 nM
GI50 (SW-620 colon): 27.5 nM
TGI (SW-620 colon): 94.9 nM
GI50 (T-47D breast): 28.5 nM
TGI (T-47D breast): 97.3 nM
GI50 (TK-10 renal): 39.3 nM
TGI (TK-10 renal): 500 nM
GI50 (U251 CNS): 42.8 nM
TGI (U251 CNS): > 100000 nM
GI50 (UACC-257 melanoma): 86.4 nM
TGI (UACC-257 melanoma): > 100000 nM
GI50 (UACC-62 melanoma): 34.4 nM
TGI (UACC-62 melanoma): > 100000 nM
GI50 (UO-31 renal): 34.1 nM
TGI (UO-31 renal): > 100000 nM
